Source: ChEMBL document CHEMBL5512659, “Structure optimizing of flavonoids against both MRSA and VRE” (Eur J Med Chem, 2024)
Calls of active or inactive are those of the source. The calls are words filed in the database; no cut-off is given here.

Experiments:
Staphylococcus aureus [1] = assay: Antibacterial activity against methicillin resistant Staphylococcus aureus clinical isolate 003 in presence of 2.5 mM/L Ca2+ (reference value: 1 ug/ml); format: functional
Staphylococcus aureus [2] = assay: Antibacterial activity against methicillin resistant Staphylococcus aureus clinical isolate 003 in presence of 140 mM/L Na+ (reference value: 1 ug/ml); format: functional
Staphylococcus aureus [3] = assay: Antibacterial activity against methicillin resistant Staphylococcus aureus clinical isolate 003 in presence of 1 mM/L Mg2+ (reference value: 1 ug/ml); format: functional
Staphylococcus aureus [4] = assay: Antibacterial activity against methicillin resistant Staphylococcus aureus clinical isolate 003 in presence of 1 mM/L Mg2+ (reference value: 0.5 ug/ml); format: functional
Staphylococcus aureus [5] = assay: Antibacterial activity against methicillin resistant Staphylococcus aureus clinical isolate 003 in presence of 1 mM/L Mg2+ (reference value: 0.25 ug/ml); format: functional
Staphylococcus aureus [6] = assay: (§1) Antibacterial activity against methicillin resistant Staphylococcus aureus clinical isolate 003 infected in cyclophosphamide immunosuppressed mouse model of skin wound infection assessed as reduction in bacterial load in wound at 5 mg/kg administered for 7 days and measured on day 8 (reference value: 1.6 x 10^8 CFU); format: functional; settings: time 8 day
Staphylococcus aureus [7] = assay: Synergistic antibacterial activity against methicillin resistant Staphylococcus aureus clinical isolate 003 assessed as fractional inhibitory concentration in presence of streptomycin; format: functional
[8] = Cytotoxicity against HEK293T cells assessed as cell viability at 64 ug/ml measured after 48 hrs relative to control; format: toxicity, cell-based, HEK-293T; settings: human, at 64 µg/mL, read-out: Activity
Staphylococcus aureus [9] = assay: Antibacterial activity against methicillin resistant Staphylococcus aureus clinical isolate 003 infected in cyclophosphamide immunosuppressed mouse model of skin wound infection assessed as reduction in inflammatory cells in skin at 1.25 to 5 mg/kg administered for 7 days and measured on day 8 by H and E staining based analysis; format: functional, organism-based; settings: dose 1.25-5 mg/kg, time 8.0 day
Staphylococcus aureus [10] = assay: as §1, with “2.5” for “5”; format: functional; settings: time 8 day
Enterococcus faecalis [11] = assay: Additive antibacterial activity against multidrug resistant Enterococcus faecalis ATCC 51299 assessed as fractional inhibitory concentration in presence of lincomycin hydrochloride; format: functional
Staphylococcus aureus [12] = assay: Synergistic antibacterial activity against methicillin resistant Staphylococcus aureus clinical isolate 003 assessed as fractional inhibitory concentration in presence of lincomycin hydrochloride; format: functional
Enterococcus faecalis [13] = assay: Antibacterial activity against multidrug resistant Enterococcus faecalis ATCC 51299 infected in cyclophosphamide immunosuppressed mouse model of abdominal infection assessed as reduction in cell degeneration at 1.25 to 5 mg/kg measured after 60 hrs by H and E staining based analysis; format: functional, organism-based; settings: dose 1.25-5 mg/kg
Enterococcus faecalis [14] = assay: Antibacterial activity against multidrug resistant Enterococcus faecalis ATCC 51299 infected in cyclophosphamide immunosuppressed mouse model of abdominal infection assessed as reduction in inflammatory infiltration at 1.25 to 5 mg/kg measured after 60 hrs by H and E staining based analysis; format: functional, organism-based; settings: dose 1.25-5 mg/kg
Enterococcus faecalis [15] = assay: Antibacterial activity against multidrug resistant Enterococcus faecalis ATCC 51299 infected in cyclophosphamide immunosuppressed mouse model of abdominal infection assessed as eradication of bacterial colonies in kidney at 1.25 to 5 mg/kg measured after 60 hrs relative to control; format: functional; settings: dose 1.25-5 mg/kg
Enterococcus faecalis [16] = assay: Synergistic antibacterial activity against multidrug resistant Enterococcus faecalis ATCC 51299 assessed as fractional inhibitory concentration in presence of adriamycin hydrochloride; format: functional
Staphylococcus aureus [17] = assay: Additive antibacterial activity against methicillin resistant Staphylococcus aureus clinical isolate 003 assessed as fractional inhibitory concentration in presence of azithromycin; format: functional
Enterococcus faecalis [18] = assay: Synergistic antibacterial activity against multidrug resistant Enterococcus faecalis ATCC 51299 assessed as fractional inhibitory concentration in presence of azithromycin; format: functional
Staphylococcus aureus [19] = assay: Antibacterial activity against methicillin resistant Staphylococcus aureus clinical isolate 003 in presence of 140 mM/L Na+ (reference value: 0.25 ug/ml); format: functional
Staphylococcus aureus [20] = assay: Antibacterial activity against methicillin resistant Staphylococcus aureus clinical isolate 003 in presence of 4.5 mM/L K+ (reference value: 0.25 ug/ml); format: functional
Enterococcus faecalis [21] = assay: Additive antibacterial activity against multidrug resistant Enterococcus faecalis ATCC 51299 assessed as fractional inhibitory concentration in presence of chloramphenicol; format: functional
Staphylococcus aureus [22] = assay: Antibacterial activity against methicillin resistant Staphylococcus aureus clinical isolate 003 infected in cyclophosphamide immunosuppressed mouse model of skin wound infection assessed as wound healing at 1.25 to 5 mg/kg administered for 7 days and measured on day 8; format: functional, organism-based; settings: dose 1.25-5 mg/kg, time 8.0 day
Enterococcus faecalis [23] = assay: Antibacterial activity against multidrug resistant Enterococcus faecalis ATCC 51299 infected in cyclophosphamide immunosuppressed mouse model of abdominal infection assessed as eradication of bacterial colonies in liver at 1.25 to 5 mg/kg measured after 60 hrs relative to control; format: functional; settings: dose 1.25-5 mg/kg
Staphylococcus aureus [24] = assay: Additive antibacterial activity against methicillin resistant Staphylococcus aureus clinical isolate 003 assessed as fractional inhibitory concentration in presence of ampicillin; format: functional
Enterococcus faecalis [25] = assay: Antibacterial activity against multidrug resistant Enterococcus faecalis ATCC 51299 infected in cyclophosphamide immunosuppressed mouse model of abdominal infection assessed as reduction in cell swelling at 1.25 to 5 mg/kg measured after 60 hrs by H and E staining based analysis; format: functional, organism-based; settings: dose 1.25-5 mg/kg
Staphylococcus aureus [26] = assay: Synergistic antibacterial activity against methicillin resistant Staphylococcus aureus clinical isolate 003 assessed as fractional inhibitory concentration in presence of norfloxacin; format: functional
Enterococcus faecalis [27] = assay: Additive antibacterial activity against multidrug resistant Enterococcus faecalis ATCC 51299 assessed as fractional inhibitory concentration in presence of streptomycin; format: functional

CCCCCCc1c(-c2ccc(OCC(=O)CN[C@H](CCCNC(=N)N)C(=O)OC)cc2OCC(=O)CN[C@H](CCCNC(=N)N)C(=O)OC)oc2cc(OC)cc(O)c2c1=O
MIC (Staphylococcus aureus [1]): 1 µg/mL
MIC (Staphylococcus aureus [2]): 1 µg/mL
MIC (Staphylococcus aureus [3]): 1 µg/mL

CCCCCCc1c(-c2ccc(OCCCCN(C)C)cc2OCCCCN(C)C)oc2cc(OC)cc(O)c2c1=O
MIC (Staphylococcus aureus [4]): 0.5 µg/mL

CCCCCCc1c(-c2ccc(OCCCCNCCCN)cc2OCCCCNCCCN)oc2cc(OC)cc(O)c2c1=O
MIC (Staphylococcus aureus [5]): 0.25 µg/mL
Activity (Staphylococcus aureus [6]): 9.4 10^6CFU
fractional inhibitory concentration index (FICI) (Staphylococcus aureus [7]): 0.375
viability at 48 h, 64 ug/ml [8]: > 50%
Activity (Staphylococcus aureus [9]): Active
Activity (Staphylococcus aureus [10]): 8 10^6CFU
fractional inhibitory concentration index (FICI) (Enterococcus faecalis [11]): 1
fractional inhibitory concentration index (FICI) (Staphylococcus aureus [12]): 0.313
Activity (Enterococcus faecalis [13]): Active
Activity (Enterococcus faecalis [14]): Active
Activity (Enterococcus faecalis [15]): 99.2%
fractional inhibitory concentration index (FICI) (Enterococcus faecalis [16]): 0.5
fractional inhibitory concentration index (FICI) (Staphylococcus aureus [17]): 0.75
fractional inhibitory concentration index (FICI) (Enterococcus faecalis [18]): 0.313
MIC (Staphylococcus aureus [19]): 0.25 µg/mL
MIC (Staphylococcus aureus [20]): 0.125 µg/mL
fractional inhibitory concentration index (FICI) (Enterococcus faecalis [21]): 0.75
Activity (Staphylococcus aureus [22]): Active
Activity (Enterococcus faecalis [23]): 97%
fractional inhibitory concentration index (FICI) (Staphylococcus aureus [24]): 0.75
Activity (Enterococcus faecalis [25]): Active
fractional inhibitory concentration index (FICI) (Staphylococcus aureus [26]): 0.5
fractional inhibitory concentration index (FICI) (Enterococcus faecalis [27]): 0.75
